Reference: publication PMC11812216, “Multifunctional hyaluronic acid-based biomimetic/pH-responsive hybrid nanostructured lipid carriers for treating bacterial sepsis” (Journal of Biomedical Science, 2025)

Columns and labels:
[1] = target: T1, Recombinant human TLR2 (RPA663Hu03) (Homo sapiens, UniProt O60603); assay: microscale thermophoresis, His-tag-labelled TLR2; type: binding
T1 construct: commercial recombinant protein (Biocom Africa), His-tag labelled with Red-tris-NTA
Source text: microscale thermophoresis, His-tag-labelled TLR2 on Recombinant human TLR2 (RPA663Hu03)

[2] = target: T2, Recombinant human TLR4 (Active ab233665) (Homo sapiens, UniProt O00206); assay: microscale thermophoresis, Blue-NHS-labelled TLR4; type: binding
T2 construct: commercial recombinant protein (Abcam), labelled with Blue-NHS dye; no MD-2 mentioned
T2 sequence (O00206 24-631 limits assumed): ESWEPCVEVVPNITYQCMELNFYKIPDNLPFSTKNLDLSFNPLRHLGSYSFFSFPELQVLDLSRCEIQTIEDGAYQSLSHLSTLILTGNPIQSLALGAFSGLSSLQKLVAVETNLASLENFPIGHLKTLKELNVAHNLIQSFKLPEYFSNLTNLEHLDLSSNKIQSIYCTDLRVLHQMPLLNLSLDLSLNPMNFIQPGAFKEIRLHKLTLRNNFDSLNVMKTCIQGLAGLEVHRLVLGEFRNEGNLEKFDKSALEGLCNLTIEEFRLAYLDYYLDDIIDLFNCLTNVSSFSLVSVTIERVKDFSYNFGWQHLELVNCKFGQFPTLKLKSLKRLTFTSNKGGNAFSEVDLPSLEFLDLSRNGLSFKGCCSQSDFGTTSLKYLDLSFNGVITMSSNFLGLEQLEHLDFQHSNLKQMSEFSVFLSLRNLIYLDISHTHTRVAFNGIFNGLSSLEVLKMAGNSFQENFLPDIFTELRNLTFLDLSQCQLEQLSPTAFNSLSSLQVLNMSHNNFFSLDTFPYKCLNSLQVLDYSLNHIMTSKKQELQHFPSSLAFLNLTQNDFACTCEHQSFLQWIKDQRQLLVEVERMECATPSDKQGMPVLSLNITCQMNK
Source text: microscale thermophoresis, Blue-NHS-labelled TLR4 on Recombinant human TLR4 (Active ab233665)

T1 sequence (O60603 21-588 limits assumed): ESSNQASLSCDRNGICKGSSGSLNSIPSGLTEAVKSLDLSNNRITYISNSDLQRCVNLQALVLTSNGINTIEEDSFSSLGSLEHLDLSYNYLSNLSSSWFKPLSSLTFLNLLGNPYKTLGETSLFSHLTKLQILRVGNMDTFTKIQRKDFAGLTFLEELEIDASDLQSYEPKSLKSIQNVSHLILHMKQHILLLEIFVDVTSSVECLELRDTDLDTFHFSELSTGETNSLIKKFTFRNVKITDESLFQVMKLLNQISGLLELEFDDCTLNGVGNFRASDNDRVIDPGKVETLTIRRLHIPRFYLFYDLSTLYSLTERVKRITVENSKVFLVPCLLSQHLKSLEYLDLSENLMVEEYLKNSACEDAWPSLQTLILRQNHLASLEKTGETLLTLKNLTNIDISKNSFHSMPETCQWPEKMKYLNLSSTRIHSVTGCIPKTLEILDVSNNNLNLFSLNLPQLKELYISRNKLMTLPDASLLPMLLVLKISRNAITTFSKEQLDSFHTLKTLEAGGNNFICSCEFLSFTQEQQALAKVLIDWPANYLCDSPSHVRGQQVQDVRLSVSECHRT

For NCCCC[C@H](N)C(=O)O [Lys], which Kd [1] is on record?
The Kd was 2.78 ± 0.74 µM.

What about the Kd [2] of the same compound?
Its Kd is 43.5 ± 2.35 µM.
